# Assay results taken from patent US20260265199A1, “CRYSTALLINE FORMS OF (R)-2-AMINO-5-(4-(2-(3,5-DIFLUOROPHENYL)-2-HYDROXYACETAMIDO)-2-METHYLPHENYL)-N-ISOPROPYLNICOTINAMIDE AND METHODS FOR USING THE SAME” (HIBERCELL, INC., priority 2023, published 2026).
# Structures can show the parent of a compound that is named as a salt. Where two headings read alike, the source gives them in different places.
# Assay: Phase 1a study: pharmacokinetics after oral BID dosing in subjects with advanced solid tumors
# Type: in vivo, human
# Conditions: for Tmax / Cmax / half-life / AUC(0-t) / Vd/F / AUC(0-inf) / AUC: human, in vivo; for Vd/F: read-out: Vz/F; for AUC: read-out: AUC0-τ
# Experimental: This example describes a first in human, Phase 1a, multi-center, open-label study to establish the maximum tolerated dose (MTD) and evaluate the safety and tolerability of oral dosing of Form A of the hemi-fumarate salt of the compound of formula (I) (Example 11) in a dose-escalating fashion. Form A of the hemi-fumarate salt was orally administered BID every day with food or within 30 minutes of completing a meal, starting at 25 mg, with doses escalating to 50, 100, 200, 400, 600, and 900 mg BID as safety allows for each 3-week treatment cycle.
# Up to 36 qualified subjects at 3 to 5 US sites, who have specific tumor types of renal cell carcinoma (RCC), gastric cancer (GC), metastatic breast cancer (MBC), small cell lung cancer (SCLC), and other solid tumors (e.g., non-small cell lung cancer, colorectal cancer, carcinoma of unknown primary) with the exception of rapidly progressing neoplasms (e.g., pancreatic cancer, glioblastoma, hepatocellular carcinoma) received Form A of the hemi-fumarate salt. Every effort was made to ensure approximately 50% of all subjects enrolled were subjects with RCC and GC. The starting dose level was 25 mg twice daily (BID), escalating to 50, 100, and 200 mg BID as safety allows, following the Bayesian Optimal Interval (BOIN) design. The safety monitoring committee (SMC) evaluated the dose-limiting toxicities (DLTs) and cumulative safety and PK data at the end of each cohort. Based on the SMC recommendations after a comprehensive review of PK and safety data for 200 mg BID dose, higher dose levels were evaluated, starting with 400 mg BID. The dose escalated to 600 mg and then 900 mg following the BOIN design starting with 1 subject at each escalated dose, until the MTD was reached or the sponsor or SMC declares the dose most appropriate for clinical development. This Phase 1a will be expanded into a Phase 1b/2a study through a protocol amendment and will then assess the dose and tumor type(s) selected in Phase 1a as the most appropriate for further clinical development. Subjects were dosed until unacceptable toxicity, disease progression per immune-related Response Evaluation Criteria in Solid Tumors (iRECIST), subject withdrawal, any other administrative reasons, or after 2 years of treatment, whichever occurs first. Efficacy was assessed via Response Evaluation Criteria in Solid Tumors 1.1 (RECIST 1.1); computed tomography (CT) scans were conducted every 6 weeks. Safety, including occurrence of dose-limiting toxicities (DLTs), pharmacokinetics (PK), and biomarker parameters were also assessed.
# Form A of the hemi-fumarate salt was orally administered BID with food or within 30 minutes of completing a meal, starting at 25 mg, with doses escalating to 50, 100, 200, 400, 600 and 900 mg BID as safety allowed. Up to 24 subjects were enrolled to ensure 12 subjects completed the study at the estimated MTD of Form A of the hemi-fumarate salt. Dosing occurred in 3-week cycles. Subjects spent Cycle 1/Day 1 (C1D1) in the clinic followed by an overnight stay for safety monitoring and PK sampling. Subjects were hospitalized for administration of first 3 doses: CID1 am and pm doses, and Cycle 1/Day 2 (C1D2) am dose; on Days 8, 15, and 21 the am dose was taken in the clinic after the planned PK samples. All other doses were self administered at home.
# Results of Cohorts 1 to 6 the study are detailed in Tables 47-50 below.
# [1] = po, 300 mg, 300 mg single oral dose, Cycle 1 Day 1, geometric mean, N = 4
# [2] = po, 300 mg, 300 mg twice daily oral, Cycle 1 Day 21, point estimate, N = 1
# [3] = po, 400 mg, 400 mg single oral dose, Cycle 1 Day 1, geometric mean, N = 3
# [4] = po, 600 mg, 600 mg single oral dose, Cycle 1 Day 1, point estimate, N = 1
# [5] = po, 600 mg, 600 mg twice daily oral, Cycle 1 Day 21, point estimate, N = 1
smiles,measurement,setting,value
"Cc1cc(NC(=O)[C@H](O)c2cc(F)cc(F)c2)ccc1-c1cnc(N)c(C(=O)NC(C)C)c1 [Form A of the hemi-fumarate salt, (R)-2-amino-5-(4-(2-(3,5-difluorophenyl)-2-hydroxyacetamido)-2-methylphenyl)-N-isopropylnicotinamide]",Tmax,"po, 200 mg, 200 mg twice daily oral, Cycle 1 Day 21, median, N = 4",5 h
same,Cmax,[1],1140 ng/mL
same,half-life,"po, 300 mg, 300 mg single oral dose, Cycle 1 Day 1, geometric mean, N = 4, interpret with caution, terminal elimination phase not well captured, read-out: t1/2 (converted)",6.88 h
same,AUC(0-t),"po, 300 mg, 300 mg single oral dose, Cycle 1 Day 1, geometric mean, N = 4, read-out: AUC0-12",8610 ng·h/mL
same,AUC(0-t),"po, 300 mg, 300 mg single oral dose, Cycle 1 Day 1, geometric mean, N = 4, read-out: AUC0-last",8610 ng·h/mL
same,Vd/F,[1],619 L
same,Tmax,"po, 300 mg, 300 mg single oral dose, Cycle 1 Day 1, median, N = 4",7 h
same,Cmax,[2],3030 ng/mL
same,Tmax,[2],8 h
same,AUC(0-t),"po, 300 mg, 300 mg twice daily oral, Cycle 1 Day 21, point estimate, N = 1, read-out: AUC0-last",28400 ng·h/mL
same,Cmax,[3],649 ng/mL
same,half-life,"po, 400 mg, 400 mg single oral dose, Cycle 1 Day 1, geometric mean, N = 3, interpret with caution, terminal elimination phase not well captured, read-out: t1/2 (converted)",6.79 h
same,AUC(0-t),"po, 400 mg, 400 mg single oral dose, Cycle 1 Day 1, geometric mean, N = 3, read-out: AUC0-12",3830 ng·h/mL
same,AUC(0-t),"po, 400 mg, 400 mg single oral dose, Cycle 1 Day 1, geometric mean, N = 3, read-out: AUC0-last",3830 ng·h/mL
same,Vd/F,[3],240 L
same,Tmax,"po, 400 mg, 400 mg single oral dose, Cycle 1 Day 1, median, N = 3",2 h
same,half-life,"po, 400 mg, 400 mg twice daily oral, Cycle 1 Day 21, N = 2, interpret with caution, terminal elimination phase not well captured, read-out: t1/2 (converted)",10.8 h
same,Vd/F,"po, 400 mg, 400 mg twice daily oral, Cycle 1 Day 21, N = 2",122 L
same,Cmax,"po, 400 mg, 400 mg twice daily oral, Cycle 1 Day 21, geometric mean, N = 2",3680 ng/mL
same,AUC(0-t),"po, 400 mg, 400 mg twice daily oral, Cycle 1 Day 21, geometric mean, N = 2, read-out: AUC0-last",30800 ng·h/mL
same,half-life,"po, 400 mg, 400 mg twice daily oral, Cycle 1 Day 21, geometric mean, N = 2, read-out: t1/2, eff (converted)",38.5 h
same,Tmax,"po, 400 mg, 400 mg twice daily oral, Cycle 1 Day 21, median, N = 2",2.5 h
same,Cmax,[4],1460 ng/mL
same,Tmax,[4],2 h
same,AUC(0-t),"po, 600 mg, 600 mg single oral dose, Cycle 1 Day 1, point estimate, N = 1, read-out: AUC0-12",11600 ng·h/mL
same,AUC(0-t),"po, 600 mg, 600 mg single oral dose, Cycle 1 Day 1, point estimate, N = 1, read-out: AUC0-last",11600 ng·h/mL
same,Cmax,[5],5990 ng/mL
same,Tmax,[5],12 h
same,AUC(0-t),"po, 600 mg, 600 mg twice daily oral, Cycle 1 Day 21, point estimate, N = 1, read-out: AUC0-last",60800 ng·h/mL
same,half-life,"po, 600 mg, 600 mg twice daily oral, Cycle 1 Day 21, point estimate, N = 1, read-out: t1/2, eff (converted)",39.1 h
same,AUC(0-inf),"25 mg single oral dose, Cycle 1 Day 1, geometric mean, N = 3",2200 ng·h/mL
same,AUC,"25 mg twice daily oral, Cycle 1 Day 21, geometric mean, N = 3",4110 ng·h/mL
same,AUC(0-inf),"50 mg single oral dose, Cycle 1 Day 1, geometric mean, N = 3",5650 ng·h/mL
same,AUC,"50 mg twice daily oral, Cycle 1 Day 21, geometric mean, N = 3",9070 ng·h/mL
same,AUC,"100 mg twice daily oral, Cycle 1 Day 21, geometric mean, N = 3",11700 ng·h/mL
same,AUC(0-inf),"200 mg single oral dose, Cycle 1 Day 1, geometric mean, N = 5",18000 ng·h/mL
same,AUC,"200 mg twice daily oral, Cycle 1 Day 21, geometric mean, N = 4",27200 ng·h/mL
same,AUC(0-inf),"300 mg single oral dose, Cycle 1 Day 1, geometric mean, N = 4",4810 ng·h/mL
same,AUC,"300 mg twice daily oral, Cycle 1 Day 21, point estimate, N = 1",28400 ng·h/mL
same,half-life,"300 mg twice daily oral, Cycle 1 Day 21, point estimate, N = 1, read-out: t1/2, eff (converted)",19.4 h
same,AUC(0-inf),"400 mg single oral dose, Cycle 1 Day 1, geometric mean, N = 3",16300 ng·h/mL
same,AUC,"400 mg twice daily oral, Cycle 1 Day 21, geometric mean, N = 2",51200 ng·h/mL
same,AUC,"600 mg twice daily oral, Cycle 1 Day 21, point estimate, N = 1",60800 ng·h/mL
same,Exposure versus dose,"oral BID with food, 25 mg to 600 mg dose range, subjects with advanced solid tumors",increased roughly proportional to the increase in dose
same,Time to steady-state,"oral BID, based on similar trough concentrations on Cycle 1, Days 8, 15 and 21","achieved by Cycle 1, Day 8"
